The target in assay [1] is T1, Pim2 kinase (Homo sapiens, UniProt Q9P1W9). The experiment in a line: KinaseGlo Pim2 ATP depletion assay. It is filed as biochemical. The settings on record: Table 4, 5 nM PIM2, 4 μM ATP, 10 μM BAD peptide. The protocol:
The activity of PIM2 is measured using a luciferase-luciferin based ATP detection reagent to quantify ATP depletion resulting from kinase-catalyzed phosphoryl transfer to a peptide substrate. Compounds to be tested are dissolved in 100% DMSO and directly distributed into white 384-well plates at 0.5 μl per well. […] After 15 minutes, 10 μl of 8 μM ATP in assay buffer is added. Final assay concentrations are 5 nM PIM2, 4 μM ATP, 10 μM BAD peptide and 2.5% DMSO. The reaction is performed until approximately 50% of the ATP is depleted, then stopped with the addition of 20 μl KinaseGlo Plus (Promega Corporation) solution. The stopped reaction is incubated for 10 minutes and the remaining ATP detected via luminescence on the Victor2 (Perkin Elmer).
A general note: Kinase-Glo measures the ATP left after a reaction by luminescence.

Assay [2] relates to KMS11 (human myeloma cell line). The experiment in a line: Cell proliferation assay (CellTiter-Glo) in KMS11 cells. The settings on record: KMS-11, 72 h, read-out: KMS11-luc EC50. The class given is cell-based. An outline of the steps: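 KMS11 cells at 2000 per well in IMDM/10% FBS were exposed to compound for 3 days. Viability was read by CellTiter-Glo luminescence.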
(In ATP-based viability assays light output follows the ATP content of the culture.)

In another assay the target is Pim1 kinase (Homo sapiens, UniProt P11309). The experiment in a line: Pim1 AlphaScreen assay (high ATP).
Pim1 kinase, sequence (P11309 whole entry): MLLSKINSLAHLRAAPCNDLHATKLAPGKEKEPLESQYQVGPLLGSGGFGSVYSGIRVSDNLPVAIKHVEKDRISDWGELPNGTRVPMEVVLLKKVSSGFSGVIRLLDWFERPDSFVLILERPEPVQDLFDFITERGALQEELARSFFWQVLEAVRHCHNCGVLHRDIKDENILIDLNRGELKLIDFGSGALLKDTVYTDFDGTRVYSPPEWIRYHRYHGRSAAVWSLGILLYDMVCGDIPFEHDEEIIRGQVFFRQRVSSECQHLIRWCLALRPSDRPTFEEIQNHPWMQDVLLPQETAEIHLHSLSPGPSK
Assay [3] concerns the target T1, Pim2 kinase. As to the kind of experiment: Pim2 AlphaScreen assay (high ATP).
Procedure: (§1) The activity of Pim 1, Pim 2, & Pim 3 is measured using a homogeneous bead based system quantifying the amount of phosphorylated peptide substrate resulting from kinase-catalyzed phosphoryl transfer to a peptide substrate. Compounds to be tested are dissolved in 100% DMSO and directly distributed to a white 384-well plate at 0.25 μl per well. […] This is followed by the addition of 5 μl/well of Pim 1, Pim 2 or Pim 3 kinase in assay buffer (concentrations described below). Final assay concentrations (described below) are in 2.5% DMSO. The reactions are performed for ˜2 hours, then stopped by the addition of 10 μl of 0.75 μg/ml anti-phospho Ser/Thr antibody (Cell Signaling), 10 μg/ml Protein A AlphaScreen beads (Perkin Elmer), and 10 μg/ml streptavidin coated AlphaScreen beads in stop/detection buffer (50 mM EDTA, 95 mM Tris, pH=7.5, 0.01% Tween-20). The stopped reactions are incubated overnight in the dark. The phosphorylated peptide is detected via an oxygen anion initiated chemiluminescence/fluorescence cascade using the Envision plate reader (Perkin Elmer).
Another assay deals with Pim3 kinase (Homo sapiens, UniProt Q86V86). The experiment in a line: Pim3 AlphaScreen assay (high ATP).

Where two headings read alike, the source gives them in different places.

T1 sequence (Q9P1W9 whole entry): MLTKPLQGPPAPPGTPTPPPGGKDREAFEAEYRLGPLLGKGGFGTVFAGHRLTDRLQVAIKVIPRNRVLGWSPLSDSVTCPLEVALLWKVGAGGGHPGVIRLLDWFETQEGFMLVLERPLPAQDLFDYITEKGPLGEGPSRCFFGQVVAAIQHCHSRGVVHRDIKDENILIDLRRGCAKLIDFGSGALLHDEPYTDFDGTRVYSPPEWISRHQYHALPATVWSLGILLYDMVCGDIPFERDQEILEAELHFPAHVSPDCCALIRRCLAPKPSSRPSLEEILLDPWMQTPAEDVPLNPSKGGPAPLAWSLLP
Procedure for Pim3 kinase: as §1

Usually IC50 stands for the concentration at which inhibition is half-maximal. High values mean weaker potency, low ones greater potency. As usually defined, the EC50 is the concentration needed to bring the measured effect to its halfway point. Regarding `C[C@H]1C[C@@H](c2ccncc2NC(=O)c2nc(-c3cccc(F)n3)ccc2N)C[C@@H](O)[C@]1(C)O` [Example 135, 5-amino-N-(4-((1R,3R,4R,5S)-3,4-dihydroxy-4,5-dimethylcyclohexyl)pyridin-3-yl)-6′-fluoro-2,2′-bipyridine-6-carboxamide], the IC50 on Pim2 kinase [1] worked out at 14.2 nM; at Pim1 kinase, 33.5 nM; against Pim2 kinase [3], 5690 nM; against Pim3 kinase it was 1130 nM. Moreover, the concentration giving a half-maximal response (EC50) in assay [2] (Table 4, 3 days) is at least 10000 nM; in assay [2] (Table 5, 3 days) it was over 10000 nM.

Take `C[C@H]1C[C@@H](c2ccncc2NC(=O)c2ccc(F)c(-c3c(F)cccc3F)n2)C[C@@H](N)[C@]1(C)O` [Example 27, N-(4-((1R,3R,4R,5S)-3-amino-4-hydroxy-4,5-dimethylcyclohexyl)pyridin-3-yl)-6-(2,6-difluorophenyl)-5-fluoropicolinamide]: the IC50 at Pim2 kinase [1] was determined as 3.8 nM; on Pim1 kinase it was 0.11 nM; on Pim2 kinase [3], 5.73 nM; on Pim3 kinase it was 0.99 nM. Besides, the half-maximal effective concentration (EC50) in assay [2] (Table 4, 3 days) stood at 140 nM; in assay [2] (Table 5, 3 days), 138 nM.

As to `C[C@H]1C[C@@H](c2ccncc2NC(=O)c2nc(-c3ccc(F)cn3)ccc2N)C[C@@H](O)[C@]1(C)O` [Example 134, 5-amino-N-(4-((1R,3R,4R,5S)-3,4-dihydroxy-4,5-dimethylcyclohexyl)pyridin-3-yl)-5′-fluoro-2,2′-bipyridine-6-carboxamide], the IC50 against Pim2 kinase [1] was 50.7 nM; against Pim1 kinase, 78.7 nM; on Pim2 kinase [3], 14300 nM; at Pim3 kinase it was 3390 nM. The 50% effective concentration (EC50) in assay [2] (Table 4, 3 days) amounted to 4150 nM; in assay [2] (Table 5, 3 days) it was 4150 nM.

Turning to `C[C@H]1C[C@@H](c2ccncc2NC(=O)c2nc(-c3ccc(F)c(F)c3)ccc2N)C[C@@H](O)[C@]1(C)O` [Example 129, 3-amino-6-(3,4-difluorophenyl)-N-(4-((1R,3R,4R,5S)-3,4-dihydroxy-4,5-dimethylcyclohexyl)pyridin-3-yl)picolinamide], the IC50 against Pim2 kinase [1] came out at 20.1 nM; at Pim1 kinase, 57.7 nM; at Pim2 kinase [3], 8160 nM; at Pim3 kinase, 1710 nM. For the same compound, the EC50 in assay [2] (Table 4, 3 days) came out at 3300 nM; in assay [2] (Table 5, 3 days), 3300 nM.

In the case of `C[C@H]1C[C@@H](c2ccncc2NC(=O)c2nc(-c3nc(F)c(F)cc3F)ccc2N)C[C@@H](O)[C@]1(C)O` [Example 128, 5-amino-N-(4-((1R,3R,4R,5S)-3,4-dihydroxy-4,5-dimethylcyclohexyl)pyridin-3-yl)-3′,5′,6′-trifluoro-2,2′-bipyridine-6-carboxamide], the concentration for half-maximal inhibition (IC50) turned out to be 9.7 nM against Pim2 kinase [1], 29 nM on Pim1 kinase, 2310 nM against Pim2 kinase [3] and 1070 nM against Pim3 kinase. Further, the EC50 was at least 10000 nM in assay [2] (Table 4, 3 days) and over 10000 nM in assay [2] (Table 5, 3 days).

`C[C@@H]1C[C@H](c2ccncc2NC(=O)c2ccc(F)c(-c3c(F)cccc3F)n2)C[C@H](N)[C@@]1(C)O` [Example 28, N-(4-((1S,3S,4S,5R)-3-amino-4-hydroxy-4,5-dimethylcyclohexyl)pyridin-3-yl)-6-(2,6-difluorophenyl)-5-fluoropicolinamide]: the IC50 worked out at 229 nM against Pim2 kinase [1], 18.3 nM on Pim1 kinase, 476 nM on Pim2 kinase [3] and 138 nM on Pim3 kinase.

`C[C@H]1C[C@@H](c2ccncc2NC(=O)c2nc(-c3nc(F)ccc3F)ccc2N)C[C@@H](O)[C@]1(C)O` [Example 125, 5-amino-N-(4-((1R,3R,4R,5S)-3,4-dihydroxy-4,5-dimethylcyclohexyl)pyridin-3-yl)-3′,6′-difluoro-2,2′-bipyridine-6-carboxamide]: the IC50 amounted to 5.9 nM at Pim2 kinase [1], 23.1 nM against Pim1 kinase, 2140 nM against Pim2 kinase [3] and 601 nM against Pim3 kinase.

`C[C@H]1C[C@@H](c2ccncc2NC(=O)c2nc(-c3c(F)cc(C4CCOCC4)cc3F)sc2N)C[C@@H](N)[C@]1(C)O` [Example 85, 5-amino-N-(4-((1R,3R,4R,5S)-3-amino-4-hydroxy-4,5-dimethylcyclohexyl)pyridin-3-yl)-2-(2,6-difluoro-4-(tetrahydro-2H-pyran-4-yl)phenyl)thiazole-4-carboxamide]: the EC50 in assay [2] (Table 5, 3 days) worked out at 706 nM. For the same compound, the IC50 was 0.01 nM against Pim1 kinase, 1.99 nM against Pim2 kinase [3] and 0.32 nM against Pim3 kinase.

Turning to `C[C@@H]1C[C@H](c2ccncc2NC(=O)c2csc(-c3c(F)cccc3F)n2)C[C@H](N)[C@@]1(C)O` [Example 25, N-(4-((1S,3S,4S,5R)-3-amino-4-hydroxy-4,5-dimethylcyclohexyl)pyridin-3-yl)-2-(2,6-difluorophenyl)thiazole-4-carboxamide], the IC50 against Pim2 kinase [1] came to 2010 nM; on Pim1 kinase, 111 nM; against Pim2 kinase [3], 8130 nM; against Pim3 kinase, 992 nM.

As to `C[C@H]1C[C@@H](c2ccncc2NC(=O)c2ccc(F)c(-c3c(F)cc(OC4CCOCC4)cc3F)n2)C[C@@H](O)[C@]1(C)O` [Example 90, 6-(2,6-difluoro-4-(tetrahydro-2H-pyran-4-yloxy)phenyl)-N-(4-((1R,3R,4R,5S)-3,4-dihydroxy-4,5-dimethylcyclohexyl)pyridin-3-yl)-5-fluoropicolinamide], the concentration giving a half-maximal response (EC50) in assay [2] (Table 5, 3 days) worked out at 557 nM. Moreover, the IC50 at Pim1 kinase came out at 0.47 nM; at Pim2 kinase [3], 215 nM; against Pim3 kinase, 64.4 nM.

`C[C@@H]1C[C@H](c2ccncc2NC(=O)c2ccc(F)c(-c3c(F)cc(OC4CCOCC4)cc3F)n2)C[C@H](O)[C@@]1(C)O` [Example 96, 6-(2,6-difluoro-4-(tetrahydro-2H-pyran-4-yloxy)phenyl)-N-(4-((1S,3S,4S,5R)-3,4-dihydroxy-4,5-dimethylcyclohexyl)pyridin-3-yl)-5-fluoropicolinamide]: the concentration for a half-maximal effect (EC50) in assay [2] (Table 5, 3 days) is over 10000 nM. Also, the results for the IC50 on Pim1 kinase, at Pim2 kinase [3] and on Pim3 kinase were 18.7 nM, 8720 nM and 2620 nM, respectively.

Regarding `C[C@H]1C[C@@H](c2ccncc2NC(=O)c2ccc(F)c(-c3c(F)ccc(OCCO)c3F)n2)C[C@@H](N)[C@]1(C)O` [Example 3, N-(4-((1R,3R,4R,5S)-3-amino-4-hydroxy-4,5-dimethylcyclohexyl)pyridin-3-yl)-6-(2,6-difluoro-3-(2-hydroxyethoxy)phenyl)-5-fluoropicolinamide], the EC50 in assay [2] (Table 5, 3 days) stood at 126 nM. The IC50 is 0.1 nM against Pim1 kinase, 10.6 nM against Pim2 kinase [3] and 1.94 nM against Pim3 kinase.

Turning to `C[C@H]1C[C@@H](c2ccncc2NC(=O)c2csc(-c3c(F)cccc3F)n2)C[C@@H](N)[C@]1(C)O` [Example 26, N-(4-((1R,3R,4R,5S)-3-amino-4-hydroxy-4,5-dimethylcyclohexyl)pyridin-3-yl)-2-(2,6-difluorophenyl) thiazole-4-carboxamide], the IC50 against Pim2 kinase [1] was determined as 20.8 nM; against Pim1 kinase, 1.9 nM; at Pim2 kinase [3], 109 nM; against Pim3 kinase, 17.2 nM.

For the compound `C[C@H]1C[C@@H](c2ccncc2NC(=O)c2ccc(F)c(-c3c(F)cc(C4=CCCC4)cc3F)n2)C[C@@H](N)[C@]1(C)O` [Example 81, N-(4-((1R,3R,4R,5S)-3-amino-4-hydroxy-4,5-dimethylcyclohexyl)pyridin-3-yl)-6-(4-cyclopentenyl-2,6-difluorophenyl)-5-fluoropicolinamide], the EC50 in assay [2] (Table 5, 3 days) was 409 nM. The figures for the IC50 against Pim1 kinase, on Pim2 kinase [3] and against Pim3 kinase were 0.03 nM, 4.42 nM and 0.94 nM, respectively.

As for `C[C@H]1C[C@@H](c2ccncc2NC(=O)c2ccc(F)c(-c3c(F)cc(N4CCOCC4)cc3F)n2)C[C@@H](O)[C@]1(C)O` [Example 109, 6-(2,6-difluoro-4-morpholinophenyl)-N-(4-((1R,3R,4R,5S)-3,4-dihydroxy-4,5-dimethylcyclohexyl)pyridin-3-yl)-5-fluoropicolinamide], the EC50 in assay [2] (Table 5, 3 days) is 781 nM. The half-inhibitory concentration (IC50) was found to be 0.23 nM on Pim1 kinase, 138 nM at Pim2 kinase [3] and 41.3 nM against Pim3 kinase.

In the case of `C[C@H]1C[C@@H](c2ccncc2NC(=O)c2ccc(F)c(-c3c(F)cc(OCC(=O)N(C)C)cc3F)n2)C[C@@H](N)[C@]1(C)O` [Example 93, N-(4-((1R,3R,4R,5S)-3-amino-4-hydroxy-4,5-dimethylcyclohexyl)pyridin-3-yl)-6-(4-(2-(dimethylamino)-2-oxoethoxy)-2,6-difluorophenyl)-5-fluoropicolinamide], the EC50 in assay [2] (Table 5, 3 days) was 1400 nM. For the same compound, the IC50 against Pim1 kinase amounted to 0.09 nM; against Pim2 kinase [3] it was 8.44 nM; against Pim3 kinase it was 1.23 nM.

Turning to `COCCOc1cc(F)c(-c2nc(C(=O)Nc3cnccc3[C@H]3C[C@@H](N)[C@](C)(O)[C@@H](C)C3)ccc2F)c(F)c1` [Example 7, N-(4-((1R,3R,4R,5S)-3-amino-4-hydroxy-4,5-dimethylcyclohexyl)pyridin-3-yl)-6-(2,6-difluoro-4-(2-methoxyethoxy)phenyl)-5-fluoropicolinamide], the EC50 in assay [2] (Table 5, 3 days) was found to be 57 nM. Also, the IC50 against Pim1 kinase turned out to be 0.08 nM; against Pim2 kinase [3] it was 6.31 nM; on Pim3 kinase it was 2.09 nM.

These data come from patent publication US20120225061A1, “TETRASUBSTITUTED CYCLOHEXYL COMPOUNDS AS KINASE INHIBITORS” (priority 2011, published 2012).
